Experimental data from patent publication US8883859B1, “Viral inhibitor compositions for in vivo therapeutic use comprising a combination of (-) -carvone, geraniol and a further essential oil component” (Cesa Alliance S.A., priority 2010, dated 2014).

Legend:
[1] = test system: Human Papilloma Virus (HPV); experiment: Comparative tests: cervical lesions caused by HPV, 44 female patients, observation after 10 days; type: in vivo; settings: undiluted composition
Experimental: The hereunder mentioned comparative tests are aimed to establish observation(s) after 10 days on 44 female human patients by Controlled Clinical Trial on Cervical Lesions (wounds) caused by the Human Papilloma Virus (HPV) which is a double stranded DNA non enveloped virus. […] In order to establish the non-activity of possible placebo's to be used in the clinical trial, 44 HPV infected patients were treated with a one-time dose of Placebos compositions.

[2] = test system: ES strain of lymphomatosis virus; settings: US 3,429,971 table 2; cited from earlier work
[3] = test system: human DNA viruses (HSV, ADV) and RNA viruses (CVB1, EV71); settings: each component used alone; cited from earlier work
adenovirus type 6 = settings: in vitro; cited from earlier work

Compound | antiviral activity [3] | further results
C=C(C)[C@H](CO)CC=C(C)C [Placebo 21, Lavendulol] |  | Observation(s) after 10 days: regression of lesions on the surface of the cervix [1]: No regression of lesions
CC(C)=CCC/C(C)=C/CO [Trans-2,6-dimethyl-2,6,octadiene-8-ol, (2E)-3,7-dimethylocta-2,6-dien-1-ol] |  | No. cures [2]: 0
CC(C)[C@]12CC(=O)[C@H](C)[C@H]1C2 [alpha-thujone] | No activity | 
C=C1CC/C=C(\C)CC[C@@H]2[C@@H]1CC2(C)C [beta-caryophylene] | No activity | 
C=CC(=C)CCC=C(C)C [beta-myrcene] | No activity | 
C=C(C)C1CC=C(C)C(=O)C1 (stereo not shown) [carvone] | No activity | antiviral activity against adenovirus type 6 (adenovirus type 6): antiviral activity
CC12CCC(CC1)C(C)(C)O2 [cineole] | No activity | 
CC(C)=CCCC(C)=CCCC(C)=CCO [farnesol] | No activity | 
CC12CCC(C1)C(C)(C)C2=O (stereo not shown) [fenchone] | No activity | 
CC(C)=CCC/C(C)=C/CO [geraniol] | No activity | 
(R)-Carvone + (S)-Carvone [Placebo 3] |  | Observation(s) after 10 days: regression of lesions on the surface of the cervix [1]: No regression of lesions
(cis+trans)-1,2-(+)-Limonene oxide [Placebo 18] |  | Observation(s) after 10 days: regression of lesions on the surface of the cervix [1]: No regression of lesions
